# Read-outs that look alike come from different tables or passages of the source.
# How the values were obtained:
# [1] = tested on: LOUCY (adult T-lineage ALL) cell line; experiment: Flow cytometric Annexin V-FITC/PI apoptosis assay; type: cell-based, human; conditions: for IC50: Homo sapiens, read-out: IC50 (apoptosis)
# Text: (§1) Cell lines and Apoptosis Assays. We used the human leukemia cell lines ALL-1 (Ph+ adult ALL, B-lineage), LOUCY (adult T-lineage ALL; ATCC® CRL-2629™), and RAJI (Burkitt's leukemia/lymphoma; ATCC®, CCL-86) as targets to evaluate the anti-leukemic activity of cinchona alkaloids. In vivo leukemia initiating xenograft clones capable of causing disseminated and fatal leukemia in NOD-SCID mice, derived from primary leukemia cells of 5 patients with relapsed ALL, and the aforementioned 3 leukemia cells lines were treated for 24 hours or 48 hours at 37° C. with cinchona alkaloids at increasing concentrations ranging from 0.5 μM to 50 μM. Controls cells were treated with vehicle (PBS).
# (§2) Apoptotic death was monitored using multiparameter flow cytometry, as previously reported (Uckun, F. M. et al., British Journal of Haematology, 2011, 153:741-752; Uckun, F. M. et al., J Clin Invest., 2015, 125:1006-18). Controls included vehicle (PBS) treated cells (CON). Cells were analyzed for apoptosis using the standard quantitative flow cytometric apoptosis assay using the Annexin V-FITC Apoptosis Detection Kit from Sigma. The labeled cells were analyzed on a LSR II flow cytometer. The percent apoptosis was calculated using the formula: 100−100×(Percentage of non-apoptotic cells in test sample/Percentage of non-apoptotic cells in untreated control sample). The percentages for Annexin V FITC^−PI^− viable cells and Annexin V-FITC^+PI^+ advanced apoptotic cells for each sample are indicated in the respective quadrants of the depicted two-color fluorescence dot plots.
# as §1, with “We” for “Cell lines and Apoptosis Assays. We”, “ARES-BI-C001453. […]” for “cinchona alkaloids.”, “ARES-BI-C001453” for “cinchona alkaloids”
# [2] = tested on: RAJI (Burkitt's leukemia/lymphoma) cell line; experiment: Flow cytometric Annexin V-FITC/PI apoptosis assay; type: cell-based, human; conditions: for IC50: Homo sapiens, read-out: IC50 (apoptosis)
# Text: as §1, §2
# as §1, with “We” for “Cell lines and Apoptosis Assays. We”, “ARES-BI-C001453. […]” for “cinchona alkaloids.”, “ARES-BI-C001453” for “cinchona alkaloids”
# [3] = tested on: ALL-1 (Ph+ adult ALL, B-lineage) cell line; experiment: Flow cytometric Annexin V-FITC/PI apoptosis assay; type: cell-based, human; conditions: for IC50: Homo sapiens, read-out: IC50 (apoptosis)
# Text: as §1, §2
# as §1, with “We” for “Cell lines and Apoptosis Assays. We”, “ARES-BI-C001453. […]” for “cinchona alkaloids.”, “ARES-BI-C001453” for “cinchona alkaloids”
# BT-20 and PC-3 cells = experiment: Clonogenic assay, pooled 4 experiments (2 PC-3, 2 BT-20); type: cell-based, human
# Method: (§3) Clonogenic Assays. The cytotoxicity of cinchona alkaloids was tested against clonogenic human cancer cells was examined using a methylcellulose colony assay system, as described previously (Uckun, F. M. et al., J. Exp. Med., 1986, 163: 347-68; Uckun, F. M. et al., J. Clin. Invest., 1993, 91: 1044-1051). In brief, cells (10^5 cells/ml in RPMI-10% fetal bovine serum) were treated for 8 hours at 37° C. with cinchona alkaloids at varying concentrations. After treatment, cells were washed twice, and resuspended in clonogenic medium consisting of RPMI 1640 supplemented with 0.9% methylcellulose, 10% fetal bovine serum, and 50 μM 2-mercaptoethanol. Cells were plated at 5×10^4 cells/ml in RPMI 1640 supplemented with 10% fetal bovine serum, and 0.9% methylcellulose in duplicate 35-mm Petri dishes, and cultured for 7 days at 37° C. in a humidified 5% CO2 incubator. Subsequently, cancer cell colonies were enumerated on a grid using an inverted phase-contrast microscope of high optical resolution. Results were expressed as the % Inhibition=[1−(Number of colonies in compound-treated test cultures/Number of colonies in vehicle-treated control cultures)]×100.
# as §3, with “cytotoxicity of synthetic dimeric cinchona alkaloids” for “cytotoxicity of cinchona alkaloids”
# [4] = Flow cytometric Annexin V-FITC/PI apoptosis assay, combined data sets; type: cell-based; conditions: Homo sapiens, Raji, 24 or 48 hours treatment, 0.5-50 μM, read-out: estimated IC50 (apoptosis)
# Text: as §1
# as §2, with “The percentages for Annexin V FITC^−PI^− viable cells and Annexin V-FITC^+PI^+ advanced apoptotic cells for each sample are indicated in the respective quadrants of the depicted two-color fluorescence dot plots.” left out
# [5] = tested on: PC-3 castration-resistant prostate cancer cell line; experiment: Clonogenic assay (methylcellulose colony assay); type: cell-based, human; conditions: for inhibition at 3 µM / IC50 / inhibition at 1 µM / inhibition at 10 µM: Homo sapiens
# Method: as §3
# as §3, with “cytotoxicity of synthetic dimeric cinchona alkaloids” for “cytotoxicity of cinchona alkaloids”
# [6] = tested on: ALL-1 BCR-ABL/Ph+ B-lineage ALL cell line; experiment: Clonogenic assay (methylcellulose colony assay); type: cell-based, human; conditions: for in vitro colony formation by ALL-1 cells: 10 μM
# Method: as §3
# as §3, with “cytotoxicity of synthetic dimeric cinchona alkaloids” for “cytotoxicity of cinchona alkaloids”
# [7] = tested on: BT-20 triple-negative breast cancer cell line; experiment: Clonogenic assay (methylcellulose colony assay); type: cell-based, human
# Method: as §3
# as §3, with “cytotoxicity of synthetic dimeric cinchona alkaloids” for “cytotoxicity of cinchona alkaloids”
smiles,measurement,setting,value
CCC1CC23[C@H]([C@H](Oc4nnc(O[C@@H](c5ccnc6ccc(OC)cc56)[C@H]5CC6CCN5CCC6(O)CC)c5ccccc45)c4ccnc5ccc(OC)cc45)N2CC[C@@H]13 (some centres unmarked) [ARES-BI-C002453],IC50,[1],1500 nM
same,fold higher IC50 value than ARES-BI-C001453,[1]; LOUCY,35.7 fold
same,IC50,[2]; Raji,16700 nM
same,fold higher IC50 value than ARES-BI-C001453,[2]; RAJI,1.9 fold
same,fold higher IC50 value than ARES-BI-C001453,[3]; ALL-1,9.4 fold
same,IC50,[3],7300 nM
CCC1(O)CCN2CCC1C[C@@H]2[C@@H](Oc1nnc(O[C@H](c2ccnc3ccc(OC)cc23)[C@@H]2N3CC[C@H]4C(O)(CC)CC243)c2ccccc12)c1ccnc2ccc(OC)cc12 (mixture of isomers) [ARES-BI-C001453],mean number of residual clones forming colonies,"BT-20 and PC-3 cells; 1 μM, BT-20 and PC-3",20.9±5.3 /5×10^4 cells
same,inhibition at 1 µM,"BT-20 and PC-3 cells; Homo sapiens, 1 μM, 4 experiments (2 PC-3, 2 BT-20), read-out: inhibition of clonogenic growth (mean±SE)",82.6 ± 8.1%
same,inhibition at 10 µM,"BT-20 and PC-3 cells; Homo sapiens, 10 μM, BT-20 and PC-3, read-out: inhibition of clonogenic growth (mean±SE)",99.2 ± 0.2%
same,IC50,[4],8600 nM
same,IC50,"[1]; LOUCY, side by side comparison",42 nM
same,IC50,"[2]; RAJI, side by side comparison",8900 nM
same,IC50,"[3]; ALL-1, side by side comparison",780 nM
same,inhibition at 3 µM,"[5]; PC-3, PC3 cells, 3 μM, read-out: inhibition of clonogenic growth",> 99%
same,IC50,"[5]; PC-3, PC3 cells, read-out: estimated IC50, clonogenic growth",129 nM
same,inhibition at 1 µM,"[5]; PC-3 EXP#1, 1 μM",91.9%
same,inhibition at 3 µM,"[5]; PC-3 EXP#1, 3 μM, read-out: % Inhibition",99.7%
same,inhibition at 10 µM,"[5]; PC-3 EXP#1, 10 μM",99.5%
same,inhibition at 1 µM,"[5]; PC-3 EXP#2, 1 μM",95.6%
same,inhibition at 3 µM,"[5]; PC-3 EXP#2, 3 μM, read-out: % Inhibition",99.4%
same,inhibition at 10 µM,"[5]; PC-3 EXP#2, 10 μM",99.4%
same,IC50,"[5]; PC-3, two independent experiments, non-linear regression, read-out: IC50, inhibition of clonogenic growth",56 nM
same,Colonies/5 × 10^4 Cells,"[5]; PC-3 EXP#1, 1 μM",15.0 Colonies/5 × 10^4 Cells
same,Colonies/5 × 10^4 Cells,"[5]; PC-3 EXP#1, 3 μM",0.5 Colonies/5 × 10^4 Cells
same,Colonies/5 × 10^4 Cells,"[5]; PC-3 EXP#1, 10 μM",1.0 Colonies/5 × 10^4 Cells
same,Colonies/5 × 10^4 Cells,"[5]; PC-3 EXP#2, 1 μM",7.0 Colonies/5 × 10^4 Cells
same,Colonies/5 × 10^4 Cells,"[5]; PC-3 EXP#2, 3 μM",1 Colonies/5 × 10^4 Cells
same,Colonies/5 × 10^4 Cells,"[5]; PC-3 EXP#2, 10 μM",1 Colonies/5 × 10^4 Cells
same,in vitro colony formation by ALL-1 cells,[6],abrogated the in vitro colony formation
same,Colonies/5 × 10^4 Cells,"[6]; ALL-1 EXP#1, 1 μM",27.5 Colonies/5 × 10^4 Cells
same,Colonies/5 × 10^4 Cells,"[6]; ALL-1 EXP#1, 3 μM",32.0 Colonies/5 × 10^4 Cells
same,Colonies/5 × 10^4 Cells,"[6]; ALL-1 EXP#1, 10 μM",0.0 Colonies/5 × 10^4 Cells
same,Colonies/5 × 10^4 Cells,"[6]; ALL-1 EXP#2, 1 μM",99.5 Colonies/5 × 10^4 Cells
same,Colonies/5 × 10^4 Cells,"[6]; ALL-1 EXP#2, 3 μM",14.5 Colonies/5 × 10^4 Cells
same,Colonies/5 × 10^4 Cells,"[6]; ALL-1 EXP#2, 10 μM",0.0 Colonies/5 × 10^4 Cells
same,inhibition at 1 µM,"[6]; Homo sapiens, ALL-1 EXP#1, 1 μM",91.5%
same,inhibition at 3 µM,"[6]; Homo sapiens, ALL-1 EXP#1, 3 μM",90.1%
same,inhibition at 10 µM,"[6]; Homo sapiens, ALL-1 EXP#1, 10 μM",> 99.7%
same,inhibition at 1 µM,"[6]; Homo sapiens, ALL-1 EXP#2, 1 μM",56.1%
same,inhibition at 3 µM,"[6]; Homo sapiens, ALL-1 EXP#2, 3 μM",93.6%
same,inhibition at 10 µM,"[6]; Homo sapiens, ALL-1 EXP#2, 10 μM",> 99.6%
same,IC50,"[6]; Homo sapiens, ALL-1, two independent experiments, non-linear regression, read-out: IC50, inhibition of clonogenic growth",290 nM
same,Colonies/5 × 10^4 Cells,"[7]; BT-20 EXP#1, 1 μM",21.5 Colonies/5 × 10^4 Cells
same,Colonies/5 × 10^4 Cells,"[7]; BT-20 EXP#1, 3 μM",10.0 Colonies/5 × 10^4 Cells
same,Colonies/5 × 10^4 Cells,"[7]; BT-20 EXP#1, 10 μM",0.0 Colonies/5 × 10^4 Cells
same,Colonies/5 × 10^4 Cells,"[7]; BT-20 EXP#2, 1 μM",40.0 Colonies/5 × 10^4 Cells
same,Colonies/5 × 10^4 Cells,"[7]; BT-20 EXP#2, 3 μM",9.5 Colonies/5 × 10^4 Cells
same,Colonies/5 × 10^4 Cells,"[7]; BT-20 EXP#2, 10 μM",1.0 Colonies/5 × 10^4 Cells
same,inhibition at 1 µM,"[7]; Homo sapiens, BT-20, BT-20 EXP#1, 1 μM",78%
same,inhibition at 3 µM,"[7]; Homo sapiens, BT-20, BT-20 EXP#1, 3 μM",89.8%
same,inhibition at 10 µM,"[7]; Homo sapiens, BT-20, BT-20 EXP#1, 10 μM",> 98.9%
same,inhibition at 1 µM,"[7]; Homo sapiens, BT-20, BT-20 EXP#2, 1 μM",64.9%
same,inhibition at 3 µM,"[7]; Homo sapiens, BT-20, BT-20 EXP#2, 3 μM",91.7%
same,inhibition at 10 µM,"[7]; Homo sapiens, BT-20, BT-20 EXP#2, 10 μM",99.1%
same,IC50,"[7]; Homo sapiens, BT-20, two independent experiments, non-linear regression, read-out: IC50, inhibition of clonogenic growth",369 nM
"CCC1CN2CCC1CC2C(Oc1nnc(OC(c2ccnc3ccc(OC)cc23)C2CC3CCN2CC3CC)c2ccccc12)c1ccnc2ccc(OC)cc12 (centres unmarked) [Compound C61, 1,4-Bis (9-O dihydroquinidinyl)phthalazine/hydroquinidine 1,4-phathalazinediyl diether, reference compound]",inhibition of clonogenic growth (mean±SE),"BT-20 and PC-3 cells; 10 μM, BT-20 and PC-3",53.2±11.3%
same,mean number of residual clones forming colonies,"BT-20 and PC-3 cells; 10 μM, BT-20 and PC-3",59.8±6.3 /5×10^4 cells
same,inhibition of clonogenic growth,"[5]; PC3 cells, 10 μM",67.7%
same,% Inhibition,"[5]; PC-3 EXP#1, 10 μM",77.9%
same,Colonies/5 × 10^4 Cells,"[5]; PC-3 EXP#1, 10 μM",41.0 Colonies/5 × 10^4 Cells
same,% Inhibition,"[5]; PC-3 EXP#2, 10 μM",57.5%
same,Colonies/5 × 10^4 Cells,"[5]; PC-3 EXP#2, 10 μM",67.0 Colonies/5 × 10^4 Cells
same,in vitro colony formation by ALL-1 cells,[6],abrogated the in vitro colony formation
same,% Inhibition,"[6]; ALL-1 EXP#1, 10 μM",>99.7%
same,Colonies/5 × 10^4 Cells,"[6]; ALL-1 EXP#1, 10 μM",0.0 Colonies/5 × 10^4 Cells
same,% Inhibition,"[6]; ALL-1 EXP#2, 10 μM",>99.6%
same,Colonies/5 × 10^4 Cells,"[6]; ALL-1 EXP#2, 10 μM",0.0 Colonies/5 × 10^4 Cells
same,% Inhibition,"[7]; BT-20 EXP#1, 10 μM",45.9%
same,Colonies/5 × 10^4 Cells,"[7]; BT-20 EXP#1, 10 μM",53.0 Colonies/5 × 10^4 Cells
same,% Inhibition,"[7]; BT-20 EXP#2, 10 μM",31.6%
same,Colonies/5 × 10^4 Cells,"[7]; BT-20 EXP#2, 10 μM",78.0 Colonies/5 × 10^4 Cells

# Source: patent US11649232B2, “Synthetic dimeric cinchona alkaloids against cancer” (Ares Pharmaceuticals, LLC, priority 2021, dated 2023)
